On the set-up of data set [1]: method as in Boni et al, 2007. The note with it: healthy adults; with rifampin; ref Boni et al, 2007; cited from earlier work.
On the set-up of data set [2]: method as in Punt et al, 2003. The note with it: stored at −70°C; ref Punt et al, 2003; cited from earlier work.
Details of data set [3]: method as in Atkins et al, 2004. The note with it: ref Atkins et al, 2004, cited from earlier work.
A short description of data set [4]: Safety: treatment-emergent adverse events in healthy subjects receiving temsirolimus alone or with ketoconazole. It is filed as in vivo, human. Here is the method:
(§1) In this open-label, non-randomised, single-centre, two-period, sequential study, subjects received temsirolimus (Torisel™; Wyeth Pharmaceuticals, Philadelphia, PA, USA) alone, followed by temsirolimus in combination with ketoconazole after a 14-day washout period. On study day 1 of the first period, subjects received 25 mg i.v. diphenhydramine, followed 30 min later by 5 mg i.v. temsirolimus over 30 min. Subjects remained in the clinical unit until the 72-h blood collection (study day 4) and returned for subsequent blood draws at designated time points over the next 4 days (study days 5–8). Study days 9 through 13 were part of the washout period. During the second period, subjects returned to the clinical unit on study day 14. On study day 15, they received 400 mg oral ketoconazole, followed 90 min later by a 25-mg i.v. dose of diphenhydramine. Thirty minutes later, subjects were administered a 30-min i.v. infusion of 5 mg temsirolimus. Subjects remained in the clinical unit until the 72-h blood draw (study day 18) and returned for all subsequent blood draws. They continued to take 400 mg ketoconazole orally each day through study day 21. Subjects fasted for 10 h before receiving temsirolimus and for 4 h afterward.
(§2) The geometric mean relative bioavailability of Cmax, AUC, and AUCT and the 90% confidence limits were calculated using ANOVA to determine the magnitude of the effect of ketoconazole. Vital signs, ECG intervals, and laboratory parameters were screened for prespecified, potentially clinically important criteria.

Details of data set [5]: method as in Boni et al, 2007. Particulars: cancer patients; ref Boni et al, 2007; cited from earlier work.
Data set [6] in a line: Drug interaction study: whole blood pharmacokinetics of temsirolimus and sirolimus after single 5-mg i.v. temsirolimus alone or with oral ketoconazole. It is filed as in vivo, human. The note with it: for Intersubject variability, CV for Cmax and AUC: both treatment periods; for Cmax / AUC / AUC(0-t) / clearance / half-life / Tmax / Vd: human; for Cmax / AUC / AUC(0-t) / clearance / half-life / Tmax / Vd / CL / Vss / T1/2: whole blood. Here is the method:
as §1
Blood samples were collected predose, immediately before the end of the infusion (0.5 h), and at 1, 3, 8, 24, 48, 72, 96, 120, 144, and 168 h after administration of temsirolimus on study days 1 and 15. Samples were collected in evacuated tubes containing ethylenediaminetetraacetic acid (EDTA) and gently mixed, then stored upright at −70°C until shipment.
Analytes and internal standard were extracted from a 1-ml sample of EDTA-treated whole blood by liquid–liquid extraction with 1-chlorobutane and separated with a YMC PDS AQ HPLC column (Waters, Milford, MA, USA). Analytes were detected by tandem mass spectrometry using atmospheric pressure chemical ionisation. The concentration of analytes was determined with calibration standards using linear least squares regression.
Pharmacokinetic parameters for temsirolimus were analysed for each subject for each study period using non-compartmental methods ([Jusko, 1992]). Scheduled times were used for all calculations. The Cmax and the time to reach Cmax (Tmax) were determined visually from the concentration–time curves. The terminal elimination rate constant, λz, was estimated by log-linear regression of the terminal portion of the whole blood concentration–time curves. The terminal elimination half-life (T1/2) was calculated as 0.693/λz. The area under the concentration–time curve (AUCT) was calculated using the trapezoidal rule for the ascending portion of the curve, and the log-trapezoidal rule for the descending portion of the curve. […] Clearance (CL) is the volume of plasma cleared of the drug per unit time (dose/AUC). Apparent clearance was corrected for the fraction of the dose that was metabolised (CL/fm). The apparent volume of distribution during the terminal phase (Vz) was calculated by (CL/fm)/λz. The calculation of the steady-state volume of distribution (Vdss) incorporated dissociation and association rates of protein and tissue binding. Vdss was defined as (dose/AUC)MRTu, where MRTu is the mean residence time of the unbound drug in the plasma ([Berezhkovskiy, 2004]).
as §2

On the set-up of data set [7]: method as in Zimmerman, 2004. The note with it: oral sirolimus; ref Zimmerman, 2004; cited from earlier work.
Data set [8] concerns CYP3A4. Also on record: method as in Cai et al, 2007. The note with it: in vitro liver microsome systems, ref Cai et al, 2007, cited from earlier work. (In general: Microsomes from liver hold many membrane-bound enzymes, among them those of drug oxidation.)
Data set [9] has as its system CYP3A4. The note with it: read-out: Ki for inhibition of the metabolism of sirolimus; reference not given; cited from earlier work.
[10] abbreviates: single 25-mg dose of temsirolimus, patients with RCC, CV=17%.
[11] abbreviates: 5 mg i.v. temsirolimus + ketoconazole vs temsirolimus alone.
Where [12] appears, read: intravenous, single 5 mg i.v. temsirolimus + ketoconazole 400 mg oral, healthy subjects, mean (CV).
Setting [13] is: intravenous, single 5 mg i.v. temsirolimus + ketoconazole 400 mg oral, mean (CV).
Setting [14] is: iv, single 5 mg i.v. temsirolimus alone, healthy subjects, mean (CV).
Where [15] appears, read: iv, single 5 mg i.v. temsirolimus alone, mean (CV).
[16] abbreviates: iv, 5 mg, 5 mg i.v. temsirolimus, irrespective of treatment (with or without ketoconazole), read-out: Time to maximal concentration.
[17] abbreviates: iv, 5 mg, single 5 mg i.v. temsirolimus alone, mean (CV).
The mark [18] stands for this setting: iv, 5 mg, single 5 mg i.v. temsirolimus alone, mean (CV), read-out: Tmax.
The mark [19] stands for this setting: single 5 mg i.v. temsirolimus + ketoconazole 400 mg oral, mean (CV).
[20] abbreviates: single 5 mg i.v. temsirolimus alone, mean (CV).
Where [21] appears, read: with ketoconazole relative to single 5-mg i.v. temsirolimus alone, 90% CI in brackets.
[22] abbreviates: 5 mg i.v. temsirolimus + 400 mg oral ketoconazole vs temsirolimus alone.

The structures appear in SMILES notation. Values joined by “and” are separate entries in the source; they are usually repeats but may differ in a detail not shown here. Equal entries are not always repeated. “Also recorded” adds a separate entry of the source. Where two headings read alike, the source gives them in different places.

In the case of `CO[C@H]1C[C@@H]2CC[C@@H](C)[C@@](O)(O2)C(=O)C(=O)N2CCCC[C@H]2C(=O)O[C@H]([C@H](C)C[C@@H]2CC[C@@H](OC(=O)C(C)(CO)CO)[C@H](OC)C2)CC(=O)[C@H](C)/C=C(\C)[C@@H](O)[C@@H](OC)C(=O)[C@H](C)C[C@H](C)/C=C/C=C/C=C/1C` [Temsirolimus], the “Effect of rifampin on AUC” value in data set [1] is “no effect”. In data set [2], the “Stability in whole blood” value is “stable”. In addition, the “Mean area under the curve (AUC)” value in data set [3] (setting [10]) is 1580 ng·h/mL. In addition, the “Mean maximum concentration (Cmax) in whole blood” value in data set [3] (setting [10]) was 595 ng/mL. For the same molecule, the Tolerability entry in [4] (human, in vivo) is recorded as “well tolerated”. Besides, the “Herpes simplex (skin and appendages)” value is recorded as 0 n (%) in [4] (temsirolimus 5 mg + ketoconazole 400 mg, n=14) and 1 (5.9) n (%) in data set [4] (temsirolimus 5 mg alone, n=17). The “Deaths or serious adverse events” value in data set [4] (temsirolimus alone and with ketoconazole) is recorded as “No deaths or serious adverse events”. The “Reduction in Cmax with concomitant enzyme-inducing anticonvulsant agents” value in data set [5] was 36%. In [6] (setting [11]), the “Decrease in mean clearance with ketoconazole” value is reported as “approximately 10%”. The “Effect of ketoconazole coadministration on Cmax or AUC” value in data set [6] (400 mg oral ketoconazole with 5 mg i.v. temsirolimus, healthy subjects) is given as “no significant effect; also recorded: No substantial differences”. For the same molecule, in [6], the “Intersubject variability, CV for Cmax and AUC” value is less than 16%. Further, the values for the highest concentration (Cmax) in data set [6] (setting [12]) and in data set [6] (setting [14]) were 263 ng/mL and 278 ng/mL, respectively. The AUC – broadly, concentration integrated over time – in data set [6] (setting [13]) is 992 ng·h/mL; in [6] (setting [15]), 886 ng·h/mL. The values for the area under the curve AUC(0-t) in data set [6] (setting [13]) and in data set [6] (setting [15]) were 969 ng·h/mL and 873 ng·h/mL, respectively. Moreover, the figures for the clearance in [6] (setting [13]) and in data set [6] (setting [17]) were 85.7 mL/min and 95.3 mL/min, respectively. Also, the results for the half-life in data set [6] (setting [13]) and in [6] (setting [17]) were 23.7 h and 22.3 h, respectively. The Tmax was 0.5 h in data set [6] (intravenous, single 5 mg i.v. temsirolimus + ketoconazole 400 mg oral, mean (CV), read-out: Tmax); 0.5 h in data set [6] (setting [16]); 0.5 h in [6] (setting [18]). For the same molecule, the Vd in data set [6] (intravenous, single 5 mg i.v. temsirolimus + ketoconazole 400 mg oral, mean (CV), read-out: Vss) came out at 92 L; in [6] (intravenous, single 5 mg i.v. temsirolimus + ketoconazole 400 mg oral, mean (CV), read-out: Vz) it was 174 L; in data set [6] (iv, 5 mg, single 5 mg i.v. temsirolimus alone, mean (CV), read-out: Vss) it was 87 L; in data set [6] (iv, 5 mg, single 5 mg i.v. temsirolimus alone, mean (CV), read-out: Vz), 182 L. For the same molecule, the CL in [6] (setting [19]) is on record as 5.1 (13.8%) l h^−1; in [6] (setting [20]), 5.7 (11.0%) l h^−1. In addition, the Vss in [6] (setting [19]) is recorded as 91.5 (17.5%) l; in [6] (setting [20]), 86.8 (14.6%) l. In data set [6] (setting [21]), the “Least squares geometric mean ratio for AUC” value worked out at 110%. Also, the “Least squares geometric mean ratio for AUCT” value in data set [6] (setting [21]) is listed as 109%. For the same molecule, the “Least squares geometric mean ratio for Cmax” value in data set [6] (setting [21]) stood at 94%. In addition, the “90% CIs for the least squares geometric mean ratios of Cmax, AUCT, and AUC” value in data set [6] (with ketoconazole vs temsirolimus alone) is on record as 80–125%.
For the molecule `CO[C@H]1C[C@@H]2CC[C@@H](C)[C@@](O)(O2)C(=O)C(=O)N2CCCC[C@H]2C(=O)O[C@H]([C@H](C)C[C@@H]2CC[C@@H](O)[C@H](OC)C2)CC(=O)[C@H](C)/C=C(\C)[C@@H](O)[C@@H](OC)C(=O)[C@H](C)C[C@H](C)/C=C/C=C/C=C/1C` [Sirolimus], the “Reduction of AUC by rifampin” value in data set [1] is given as 56%. Also, the “Stability in whole blood” value in [2] is on record as “stable”. Moreover, the “Cmax as % of temsirolimus Cmax values” in data set [3] (after temsirolimus) is reported as 10–20%. Besides, the “Reduction in AUC with concomitant enzyme-inducing anticonvulsant agents” value in data set [5] was 45%. For the same molecule, the “Reduction in Cmax with concomitant enzyme-inducing anticonvulsant agents” value in data set [5] is 67%. Also, the “Increase in mean AUC with ketoconazole compared with temsirolimus alone” value in [6] (setting [22]) was 3.1 fold and 3.2 fold. Moreover, the “Increase in mean Cmax with ketoconazole compared with temsirolimus alone” value in data set [6] (setting [22]) is reported as 2.2 fold. For the same molecule, the “Decrease in mean apparent metabolic clearance (CL/fm) with ketoconazole” value in [6] (setting [11]) is 3.2 fold. Also, the “Intersubject variability, CV for Cmax and AUC” value in [6] is less than 33%. For the same molecule, the peak concentration (Cmax) (in general, the peak of the concentration-time curve) was 29 ng/mL in [6] (setting [12]) and 13.3 ng/mL in data set [6] (setting [14]). The results for the AUC in [6] (setting [13]) and in [6] (setting [15]) were 3890 ng·h/mL and 1200 ng·h/mL, respectively. Besides, the AUC(0-t) (commonly the area under the concentration-time curve up to a stated or last time point) in data set [6] (setting [13]) is 2410 ng·h/mL; in data set [6] (setting [15]), 918 ng·h/mL. Besides, the Vd in [6] (intravenous, metabolite sirolimus, single 5 mg i.v. temsirolimus + ketoconazole 400 mg oral, mean (CV), read-out: Vss/fm) is 227 L; in data set [6] (intravenous, metabolite sirolimus, single 5 mg i.v. temsirolimus + ketoconazole 400 mg oral, mean (CV), read-out: Vz/fm), 220 L; in data set [6] (iv, 5 mg, metabolite sirolimus, single 5 mg i.v. temsirolimus alone, mean (CV), read-out: Vss/fm), 494 L; in data set [6] (iv, 5 mg, metabolite sirolimus, single 5 mg i.v. temsirolimus alone, mean (CV), read-out: Vz/fm), 480 L. Besides, the half-life (as a rule, how long it takes for the measured level to halve) was 113 h in data set [6] (setting [13]) and 75 h in [6] (setting [17]). Further, the Tmax in [6] (setting [16]) was 3 h; in [6] (setting [18]), 3.3 h. Moreover, the “Reduction in apparent clearance with ketoconazole” value in data set [6] (metabolite sirolimus, 5 mg i.v. temsirolimus + ketoconazole vs temsirolimus alone) stood at 69%. The “Carryover from treatment period 1 to 2, contribution to mean total AUC” value in data set [6] (period 2, mean) was found to be 1.9%. For the same molecule, the “Carryover from treatment period 1 to 2, contribution to total AUC, range” value in data set [6] (period 2, range) is listed as 1.1–3.7%. Besides, the T1/2 in [6] (setting [19]) is 112.8 (18.1%) h; in data set [6] (setting [20]), 74.8 (10.8%) h. Also, the “Increase in blood levels with ketoconazole” value in [7] is reported as roughly 10 fold.
Regarding `CC(=O)N1CCN(c2ccc(OCC3COC(Cn4ccnc4)(c4ccc(Cl)cc4Cl)O3)cc2)CC1` (stereo not drawn) [Ketoconazole], in the data set with CYP3A4 [8], the “Formation of temsirolimus metabolites, % of control levels” value is […]. Besides, the IC50 (in general, the midpoint of a concentration-inhibition curve) in the data set on CYP3A4 [8] (read-out: IC50 for formation of temsirolimus metabolites) was […]. Besides, in the data set with CYP3A4 [9], the Ki (usually a dissociation constant, usually derived from enzyme kinetics or from competition with a known ligand) was […].

Source of the values: PMC2410110, “Differential effects of ketoconazole on exposure to temsirolimus following intravenous infusion of temsirolimus” (British Journal of Cancer, 2008).
